Measurements published in patent US7888372B2, “Compositions and methods for modulating bone mineral deposition” (National Institutes of Health (NIH), priority 2001, dated 2011).
Where a chain is given by its changes, count along the chain named. Numbers in names are those of the source.

Assays:
[1] = tested on: ank/ank osteoblast cultures; assay: Addition of recombinant proteins or PPi to ank/ank osteoblast cultures; assay type: cell-based, mouse
[2] = tested on: PC-1-/- osteoblast cultures; assay: Addition of recombinant proteins or PPi to PC-1-/- osteoblast cultures; assay type: cell-based, mouse
TNAP activity = molecular target: T1, TNAP activity (Mus musculus, UniProt P09242); set-up: endogenous in cells; conditions: cited from earlier work
T1 sequence (P09242 18-501): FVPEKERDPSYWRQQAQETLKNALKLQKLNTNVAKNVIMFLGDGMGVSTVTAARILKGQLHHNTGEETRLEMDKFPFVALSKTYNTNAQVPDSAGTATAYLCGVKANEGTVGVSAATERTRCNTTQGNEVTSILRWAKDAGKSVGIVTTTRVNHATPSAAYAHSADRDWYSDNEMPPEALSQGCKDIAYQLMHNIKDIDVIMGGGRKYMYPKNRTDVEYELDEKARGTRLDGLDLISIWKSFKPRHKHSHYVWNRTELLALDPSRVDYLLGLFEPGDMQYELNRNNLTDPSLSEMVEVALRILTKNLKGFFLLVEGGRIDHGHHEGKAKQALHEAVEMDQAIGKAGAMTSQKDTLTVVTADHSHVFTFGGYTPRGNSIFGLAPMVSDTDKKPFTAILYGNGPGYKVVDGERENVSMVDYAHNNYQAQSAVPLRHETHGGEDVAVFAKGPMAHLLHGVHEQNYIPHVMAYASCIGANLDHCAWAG

TNAP knock-out mice = TNAP knock-out mice of Waymire et al.; cited from earlier work
TNAP ko osteoblasts = assay: Mineralization of bone nodules in primary TNAP ko osteoblast cultures (von Kossa); assay type: cell-based, mouse; conditions: added to the ko osteoblast culture medium
Protocol: Primary cultures of osteoblasts were isolated from calvariae of 1-4 day old pups that were hybrids of C57Bl/6×129/J mouse strains with wild-type, heterozygote and homozygote TNAP null genotypes. Isolation was performed by a slightly modified version of the time sequential collagenase technique described by Boonekamp et al. (Proc. Kon. Ned. Akad. Wet. B87:371-382, 1984). In brief, calvariae of the same genotype were pooled and three 10 minute incubations in 4 mM EDTA, 137 mM NaCl, 2.7 mM KCl, 3 mM NaH2PO4, pH 7.2, were performed, followed by seven 10 minute digestions in EDTA-free buffer, containing 180 units/ml collagenase type II (Worthington Biochemical Corporation, Lakewood, N.J.). All isolations were performed at 37° C. in a shaking water bath. The last five collagenase digestions, containing an enriched cell population of osteoblastic phenotype, were pooled and seeded at 4×10^4 cells/cm^2 in αMEM (Gibco BRL, Grand Island, N.Y.), containing 10% heat-inactivated FCS, penicillin (50 U/ml) and streptomycin ([…]).
To study mineralization, we used conditions under which we observed that osteoblasts normally formed von Kossa stain positive and alizarin red positive nodules at 7-10 days in culture. In brief, primary calvarial osteoblasts were cultured in complete αMEM media as described above, supplemented with β-glycerophosphate (10 mM) every third day and L-ascorbic acid (50 μg/ml) daily. MC3T3-E1 cells (Johnson et al., J. Bone Min. Res. 14:883-892, 1999) were maintained in the same medium, and for each experiment were plated at 80% confluence (1×10^6 cells in a 10 cm tissue-culture plastic dish in 5 ml) and received β-glycerophosphate and L-ascorbic acid as for primary osteoblasts above.
To evaluate the ability of primary osteoblasts to form and mineralize bone nodules in vitro, wild-type (wt), heterozygous and knock-out (ko) osteoblasts were cultured in media supplemented with ascorbic acid, using β-glycerophosphate as phosphate source. […] The extent of bone mineral deposition in these cultures was confirmed by quantifications of deposited calcium. […]

Q: For “recombinant osteopontin: recombinant osteopontin added to osteoblast cultures”, which “mineralization capacity (matrix calcification)” value ([1]; ank/ank osteoblast cultures) is on record?
A: restored to normal

Q: What about the “mineralization capacity (matrix calcification)” value ([2]; PC-1-/- osteoblast cultures) of the same molecule?
A: restored to normal

Q: With `O=P(O)(O)OP(=O)(O)O` [PPi, inorganic pyrophosphate, reference compound] as the molecule, how does the osteopontin expression levels ([1]; osteoblast cultures deficient in ANK protein) read?
A: corrected their osteopontin expression levels to those comparable to wild-type

Q: And the osteopontin expression levels ([2]; osteoblast cultures deficient in PC-1)?
A: corrected their osteopontin expression levels to those comparable to wild-type

Q: With `c1ccc([C@H]2CN3CCSC3=N2)cc1` [levamisole] as the molecule, how does the “kind of inhibitor of TNAP activity” value (TNAP activity) read?
A: specific uncompetitive inhibitors of TNAP activity

Q: For `N=C(N)NCCCC[C@H](N)C(=O)O` [L-homoarginine], which “kind of inhibitor of TNAP activity” value (TNAP activity) is on record?
A: specific uncompetitive inhibitors of TNAP activity

Q: For `Cc1ncc(CO)c(CO)c1O.Cl` [vitamin B6], which epileptic seizures (TNAP knock-out mice) is on record?
A: partially rescue the epileptic seizures

Q: And the life span (TNAP knock-out mice)?
A: prolonging their life

B1: heat-inactivated recombinant TNAP: heat-inactivated recombinant TNAP (protein, UniProt P05186 18-501, looked up)
Alkaline phosphatase, …: LVPEKEKDPKYWRDQAQETLKYALELQKLNTNVAKNVIMFLGDGMGVSTVTAARILKGQLHHNPGEETRLEMDKFPFVALSKTYNTNAQVPDSAGTATAYLCGVKANEGTVGVSAATERSRCNTTQGNEVTSILRWAKDAGKSVGIVTTTRVNHATPSAAYAHSADRDWYSDNEMPPEALSQGCKDIAYQLMHNIRDIDVIMGGGRKYMYPKNKTDVEYESDEKARGTRLDGLDLVDTWKSFKPRYKHSHFIWNRTELLTLDPHNVDYLLGLFEPGDMQYELNRNNVTDPSLSEMVVVAIQILRKNPKGFFLLVEGGRIDHGHHEGKAKQALHEAVEMDRAIGQAGSLTSSEDTLTVVTADHSHVFTFGGYTPRGNSIFGLAPMLSDTDKKPFTAILYGNGPGYKVVGGERENVSMVDYAHNNYQAQSAVPLRHETHGGEDVAVFSKGPMAHLLHGVHEQNYVPHVMAYAACIGANLGHCAPAS
modifications: heat-inactivated
Q: For B1, which induction of mineralization (TNAP ko osteoblasts) is on record?
A: neither heat-inactivated recombinant TNAP, nor enzymatically inactive mutants of TNAP, such as [R54C]TNAP or [V365I]TNAP, were able to induce mineralization

B2: [R54C]TNAP: enzymatically inactive mutant of TNAP (protein, UniProt P05186 18-501, looked up, variant R54C)
Alkaline phosphatase, …: B1 Alkaline phosphatase, … with R54C
Q: With B2 as the molecule, how does the induction of mineralization (TNAP ko osteoblasts) read?
A: nor enzymatically inactive mutants of TNAP, such as [R54C]TNAP or [V365I]TNAP, were able to induce mineralization

B3: [V365I]TNAP: enzymatically inactive mutant of TNAP (protein, UniProt P05186 18-501, looked up, variant V365I)
Alkaline phosphatase, …: B1 Alkaline phosphatase, … with V365I
Q: With B3 as the molecule, how does the induction of mineralization (TNAP ko osteoblasts) read?
A: nor enzymatically inactive mutants of TNAP, such as [R54C]TNAP or [V365I]TNAP, were able to induce mineralization
